Reference: US6437138B1, “3-pyridyloxymethyl heterocyclic ether compounds useful in controlling chemical synaptic transmission” (priority 1996, dated 2002)
Counter-ions that a name gives are not always drawn.

What was measured:
[1] = target: neuronal nicotinic cholinergic channels in IMR-32 cells (Homo sapiens, UniProt P30926+P32297); experiment: 86Rb+ efflux in IMR-32 cells (activation, or inhibition of efflux elicited by (S)-nicotine); type: cell-based; conditions: IMR-32; for inhibition at 1 µM / inhibition at 10 µM: inhibition of the efflux elicited by 100 μM (S)-nicotine; for inhibition at 1 µM: single dose 1 μM; for Emax: 86Rb+ efflux, percent relative to the response elicited by 100 μM (S)-nicotine, read-out: IMR-32 maximal response; for inhibition at 10 µM: single dose 10 μM
Excerpt: For the purpose of directly evaluating the ability of test compounds to functionally activate or inhibit certain subtypes of neuronal nicotinic cholinergic channels, an assay to determine ^86Rb^+Efflux in IMR-32 cells was employed (Protocol B below).
B. Protocols for the Determination of Functional Effects of Cholinerzic Channel Receptor Ligands on Synaptic Transmission
Cells of the IMR-32 human neuroblastoma clonal cell line (ATCC, Rockville, Md.) were maintained in a log phase of growth according to established procedures (Lukas, 1993). Experimental cells were seeded at a density of 500,000 cells/ml into a 24-well tissue culture dish. Plated cells were allowed to proliferate for at least 48 hours before loading with 2 μCi/ml of ^86Rb^+ (35 Ci/mmol) overnight at 37° C. The ^86Rb^+ efflux assays were performed according to previously published protocols (Lukas, R. J., J. Pharmacol. Exp. Ther., 265: 294-302, 1993) except serum-free Dulbecco's Modified Eagle's Medium was used during the ^86Rb^+ loading, rinsing, and agonist-induced efflux steps.
EC50 data and maximal responses (reported as percent relative to the response elicited by 100 μM (S)-nicotine) are shown for selected compounds of the invention. The inhibition data (given for a larger number of compounds) reflect inhibition of the efflux elicited by 100 μM (S)-nicotine for either a single dose (% inhibition at 1 μM or at 10 μM) or over a range of doses (IC50 of inhibition). […] This finding is in agreement with the results of others who have linked dopamine release, which is dependent upon the ion flux in synaptic transmission, to binding at nicotinic receptors (cf., for example, Lippiello and Caldwell, U.S. Pat. No. 5,242,935, issued Sep. 7, 1993; Caldwell and Lippiello, U.S. Pat. No. 5,248,690, issued Sep. 28, 1993; and Wonnacott et al., Prog. Brain Res., 79: 157-163 (1989)).

Row | SMILES | inhibition at 1 µM [1] | melting point | Emax [1] | inhibition at 10 µM [1]
1 | CN1CC[C@H]1COc1cncc(-c2ccccc2)c1.Cl.Cl [Example 57, 5-Phenyl-3-(1-methyl-2-(S)-azetidinylmethoxy)pyridine Dihydrochloride] | 21% | 120 to 122 °C |  | 
2 | Cc1ccc(C#Cc2cncc(OC[C@@H]3CCCN3C)c2)cc1.Cl.Cl [Example 48, 5-(2-(4-Methylphenyl)ethynyl)-3-(1-methyl-2-(S)-pyrrolidinylmethoxy)pyridine Dihydrochloride] | 40% | 197 to 199 °C |  | 
3 | CN1CCC[C@H]1COc1cncc(-c2cncnc2)c1.Cl.Cl [Example 25, 5-(5-Pyrimidinyl)-3-(1-methyl-2-(S)-pyrrolidinylmethoxy)pyridine Dihydrochloride] |  | 205 to 220 °C | 4.5% | 
4 | CN1CCC[C@H]1COc1cnc(Cl)c(Br)c1.Cl.Cl [Example 24, 5-Bromo-6-chloro-3-(1-methyl-2-(S)-pyrrolidinylmethoxy)pyridine Dihydrochloride] | 17% | 189 to 191 °C |  | 
5 | Cl.Cl.Clc1ncc(OC[C@@H]2CCCN2)cc1C=Cc1ccncc1 [Example 33, 5-(2-(4-Pyridinyl)ethenyl)-6-chloro-3-(2-(S)-pyrrolidinylmethoxy)pyridine Dihydrochloride] |  | 235 to 240 °C | 47% | 
6 | C=Cc1cc(OC[C@@H]2CCCN2)cnc1Cl.Cl [Example 191, 6-Chloro-5-ethenyl-3-(2-(S)-pyrrolidinylmethoxy)pyridine Hydrochloride] |  | 195 to 197 °C | 106% | 
7 | C=Cc1cc(OC[C@@H]2CCN2)cnc1Cl.Cl.Cl [Example 165, 3-(2-(S)-Azetidinylmethoxy)-6-chloro-5-ethenylpyridine Dihydrochloride] |  | 121 °C (dec.) | 127% | 
8 | CN1CCC[C@H]1COc1cncc(C#CC(C)(C)C)c1 [Example 47, 5-(3,3-Dimethylbutynyl)-3-(1-methyl-2-(S)-pyrrolidinylmethoxy)pyridine Dihydrochloride] | 66% |  |  | 
9 | Cl.Cl.c1ccc(-c2cncc(OC[C@@H]3CCCN3)c2)cc1 [Example 51, 5-Phenyl-3-(2-(S)-pyrrolidinylmethoxy)pyridine Dihydrochloride] | 42% | 134 to 136 °C |  | 
10 | Clc1ncc(OC[C@@H]2CCN2)cc1C=Cc1ccncc1 [Example 89, 5-(2-(4-Pyridinyl)ethenyl)-6-chloro-3-(2-(S)-azetidnylmethoxy)pyridine Citric Acid Salt] |  |  | 72% | 
11 | CN1CCC[C@H]1COc1cncc(C=CC=CC(C)(C)C)c1.Cl.Cl [Example 30, 5-(5,5-Dimethyl-1,3-hexadienyl)-3-(1-methyl-2-(S)-pyrrolidinylmethoxy)pyridine Dihydrochloride] | 21% | 148 to 150 °C |  | 90%
12 | CN1CCC[C@H]1COc1cnc(Cl)c(-c2ccccc2)c1.Cl.Cl [Example 26, 5-Phenyl-6-chloro-3-(1-methyl-2-(S)-pyrrolidinylmethoxy)pyridine Dihydrochloride] | 47% | 180 to 183 °C |  | 
13 | C=CCc1cc(OC[C@@H]2CCCN2)cnc1Cl [Example 183, 5-Allyl-6-chloro-3-(2-(S)-pyrrolidinylmethoxy)pyridine Hydrochloride] |  |  | 110% | 
14 | COC(=O)CCc1cncc(OC[C@@H]2CCCN2C)c1 [Example 15, 5-(2-(Methoxycarbonyl)ethyl)-3-(1-methyl-2-(S)-pyrrolidinylmethoxy)pyridine Dihydrochloride] | 16% |  |  | 83%
15 | CN1CCC[C@H]1COc1cncc(C#CCCCC#N)c1 [Example 14, (5-(5-Cyano-1-pentynyl-3-(1-methyl-2-(S)-pyrrolidinylmethoxy)pyridine Dihydrochloride] | 50% |  |  | 
16 | CCCC(=O)C=Cc1cncc(OC[C@@H]2CCCN2C)c1 [Example 22, 5-(3-oxo-1-Hexenyl)-3-(1-methyl-2-(S)-pyrrolidinylmethoxy)pyridinine Dihydrochloride] | 44% |  |  | 
